Patent publication US20250290110A1, “MOGROSIDE COMPOSITIONS AND METHODS OF PRODUCING SAME” (Elo Life Systems, priority 2024, published 2025)
Where “and” joins values, the source holds several entries; their conditions need not be identical. Equal values may be shown once. Entries after “also recorded” stand apart in the source; their conditions may differ.

Legend:
[1] = Sweetness concentration response curve against sucrose reference standards, trained sensory panel; format: in vivo, human; details: for Potency at 5 SEV / potency, times as sweet as sucrose at 5 SEV: spring water, room temperature; for potency, times as sweet as sucrose at 5 SEV: at 5 sucrose equivalent value (SEV)
Procedure: A blend composed of 80% purified mogroside-V (Chem Faces, CFS202202), 15% 11-oxo-mogroside-V (Chem Faces, CFS202201), and 5% mogroside IIIA-1 (Chem Faces, CFS202201) was diluted to six different concentrations (from 100 ppm to 650 ppm) in spring water (Ice Mountain, retail). For each solution, a set of five reference standards of sucrose dissolved in water in 0.5% (w/w) concentration increments was also prepared. Each concentration of the mogroside blend was evaluated by 6-8 trained judges. Samples were presented in 4-oz soufflé cups at room temperature, and the test sample was labeled with a random 3-digit code. Panelists tasted the blind-coded sample compared to the set of reference samples to determine the sweetness intensity score to the nearest 0.1 unit. Each concentration was evaluated in duplicate. The sweetness intensity scores were then plotted against the mogroside blend concentration to make a concentration response curve, and the best fitting Beidler equation was generated.
V90 is a 90% pure mogroside V containing about 6% 11-oxo mogroside-V. Five different concentrations of V90 (Huacheng Bio, LHGE-230401), ranging from 100 ppm to 500 ppm, were diluted in spring water (Ice Mountain, retail). Each dilution was presented to a panel of 7-8 judges experienced in evaluating sweeteners and was accompanied by a range of five sucrose solution reference standards bracketing the sweetness intensity of the test sample in 0.5% (w/w) increments. Panelists assigned a sweetness intensity score to each test sample, including blind duplicates, to the nearest 0.1 unit. All samples were served at room temperature in 4-oz soufflé cups with the test samples labeled with random 3-digit codes. Water and saltine crackers were provided for rinsing between samples.
Both individual mogrosides were also evaluated at five different concentrations in spring water (Ice Mountain, retail) for sweetness intensity. 11-oxo-mogroside was diluted to concentrations ranging from 200 ppm to 600 ppm and mogroside IIIA-1 was diluted to concentrations from 100 to 500 ppm. For each concentration, a set of five sucrose solution reference standards were prepared in 0.5% (w/w) increments to approximately bracket the sweetness intensity of the test sample. A panel of 6-8 trained judges evaluated each test sample in duplicate, accompanied by the corresponding reference standards, and assigned a sweetness intensity score to the sample to the nearest 0.1 unit. Samples were presented in 4-oz soufflé cups at room temperature, and the test sample was labeled with a random 3-digit code. The sweetness intensity scores were then plotted as a function of mogroside concentration to make a concentration response curve, and the best fitting Beidler equation was generated.
The error bars around each point represent 1 standard deviation. The data fit a Beidler equation with an r2 value of 0.961. The equation for this line is:
SEV=16.08*C/(521.2+C) • where SEV is the % sucrose equivalent sweetness as determined by sensory panel and C is the concentration of mogroside blend in ppm or mg/L.
P=SEV*10,000/C • where C is the concentration of the mogroside blend in ppm or mg/L and SEV is the % sucrose equivalent sweetness determined by sensory panel.

[2] = Temporal properties: onset of sweetness, time to maximum sweetness, aftertaste decay, trained sensory panel; format: in vivo, human
Procedure: Equi-sweet solutions at about 6 SEV were made in spring water (Ice Mountain, retail) of the following sweeteners: purified mogroside-V (Chem Faces, CFS202202), rebaudioside M (95%, Tate & Lyle, lot #1802-2302-1), rebaudioside A (95%, Tate & Lyle, 210617-01), and monk fruit (50% mogroside V, Tate & Lyle, 45GF220305). Another solution was prepared at about 6 SEV of a blend composed of 80% purified mogroside-V (Chem Faces, CFS202202), 15% 11-oxo-mogroside-V (Chem Faces, CFS202201), and 5% mogroside IIIA-1 (Chem Faces, CFS202201). The concentration of each solution can be found in Table 7.
A set of samples of each solution was evaluated by a panel of 7-9 trained judges. Panelists measured the time to onset of sweetness and time to reach maximum sweetness using a timer. Sweetness decay after expectorating was measured by rating sweetness intensity every 5 seconds on a 15-cm line scale graduated in evenly spaced 5-point increments and labeled low (0) to high (60). Samples were served at room temperature in 4-oz soufflé cups, labeled with random 3-digit codes. Water and saltine crackers were provided for rinsing between samples. Blind duplicates were evaluated in a second panel under the same conditions.
(§1) A solution of V90 was made at 410 ppm in spring water (Ice Mountain, retail) to be about 6 SEV. A second solution was made at about 6 SEV of purified mogroside-V (Chem Faces, CFS202202) at 325 ppm. A panel of 7-8 trained judges evaluated the temporal properties and taste attributes of each sample, including blind duplicates, in the same manner described previously in the Mogroside Blend 80/15/5 Taste Quality sections.
Two individual mogroside components of the blend, 11-oxo mogroside-V (Chem Faces, […]) and mogroside III-A1 (Chem Faces, 202301), were evaluated separately in spring water (Ice Mountain, retail) to determine the concentration needed to reach approximately 6 SEV. Solutions were then prepared at 3600 ppm of 11-oxo-mogroside-V and 600 ppm mogroside IIIA-1.
A panel of 6-7 trained judges evaluated the solutions by measuring the time to onset of sweetness and time to reach maximum sweetness using a timer. Decay of lingering aftertaste after expectorating was measured by rating sweetness intensity every 5 seconds on a 15-cm line scale graduated in evenly spaced 5-point increments and labeled low (0) to high (60). Samples were served at room temperature in 4-oz soufflé cups, labeled with random 3-digit codes, including blinded duplicates. Water and saltine crackers were provided for rinsing between samples.

[3] = Descriptive analysis of sweetener attributes, sensory panel, 15-cm line scale; format: in vivo, human; details: for Astringent, average intensity score / Bitter Linger, average intensity score / Bitterness, average intensity score / Body, average intensity score / Caramel, average intensity score / Fruity, average intensity score / Licorice, average intensity score / Sweet Linger, average intensity score / Sweetness, average intensity score: about 6 SEV in spring water, 0=low, 60=high; for taste quality in words: sensory panel
Source text: The same samples described above were presented to a panel of 6-9 experienced judges for descriptive analysis. Solutions were blind-coded with random 3-digit codes and served at room temperature for evaluation. Panelists individually scored attributes of each sample, such as sweetness intensity, bitterness, astringency, and the presence of side flavors such as licorice or fruitiness. Scores were based on a 15-cm line scale marked with evenly spaced 5-point increments from low (0) to high (60). Samples were evaluated in duplicate. Water and saltine crackers were provided for rinsing between samples.
as §1
The panel also evaluated the intensity of several sensory attributes such as bitterness, astringency, caramel flavor, and fruitiness. The same 15-cm line scale was used for scoring, labeled from low (0) to high (60) with evenly spaced 5-point increments. The samples were served in 4-oz soufflé cups that were labeled with random 3-digit codes. Samples were evaluated at room temperature and included blind duplicates. Water and saltine crackers were provided for rinsing between samples. A 400-ppm solution of V90 (Huacheng Bio, LHGE-230401) was tasted as a reference at the beginning of the descriptive analysis session for calibration verification among panelists.

[4] = cited from earlier work
[5] = solutions at about 6 SEV, room temperature
[6] = sucrose, not evaluated in this test

Row | SMILES | SEV at 1,000 ppm ([1]; from Beidler curve) [SEV] | Potency at 5 SEV [1] [×] | sweetness decay time after expectorating ([2]; solutions at about 6 SEV) | Astringent, average intensity score [3] | Bitter Linger, average intensity score [3] | Bitterness, average intensity score [3] | Body, average intensity score [3] | Caramel, average intensity score [3] | Fruity, average intensity score [3] | Licorice, average intensity score [3] | Sweet Linger, average intensity score [3] | Sweetness, average intensity score [3] | taste quality in words [3] | other results
1 | C[C@H](CC[C@@H](O[C@@H]1O[C@H](CO[C@@H]2O[C@H](CO)[C@@H](O)[C@H](O)[C@H]2O)[C@@H](O)[C@H](O)[C@H]1O[C@@H]1O[C@H](CO)[C@@H](O)[C@H](O)[C@H]1O)C(C)(C)O)[C@H]1CC[C@@]2(C)[C@@H]3CC=C4[C@@H](CC[C@H](O[C@@H]5O[C@H](CO[C@@H]6O[C@H](CO)[C@@H](O)[C@H](O)[C@H]6O)[C@@H](O)[C@H](O)[C@H]5O)C4(C)C)[C@]3(C)C(=O)C[C@]12C [11-oxo-mogroside V] | 4.2 | 28 | about 45 seconds | 4.3 | 0.7 | 7.7 | 12.7 | 4.8 | 2.1 | 2.1 | 17.1 | 37.1 | slight bitterness | potency, times as sweet as sucrose at 5 SEV ([1]; listed as 11-oxo mogroside-V): approximately 28 times as sweet as sucrose; potency, times as sweet as sucrose at 5 SEV ([1]; listed as 11-oxo-mogroside-V): 28 times as sweet as sucrose
2 | C[C@H](CC[C@@H](O[C@@H]1O[C@H](CO[C@@H]2O[C@H](CO)[C@@H](O)[C@H](O)[C@H]2O)[C@@H](O)[C@H](O)[C@H]1O[C@@H]1O[C@H](CO)[C@@H](O)[C@H](O)[C@H]1O)C(C)(C)O)[C@H]1CC[C@@]2(C)[C@@H]3CC=C4[C@@H](CC[C@H](O)C4(C)C)[C@]3(C)[C@H](O)C[C@]12C [Mogroside IIIA-1, mogroside IIIA-1] |  | 71 |  | 5.1 | 37.3 | 37.3 | 12.1 | 1.9 | 0.7 | 2.2 | 5.7 | 34.5 | strongly bitter with a strong lingering bitter aftertaste | SEV at which the concentration response curve plateaus ([1]; in vivo): 4-5 SEV; concentration at which sweetness plateaus ([1]; in vivo): about 500 ppm; duration of bitter taste after expectorating ([2]; 600 ppm, about 6 SEV): more than 60 seconds; taste quality in words ([3]; listed as mogroside IIIA-1): strong bitter aftertaste that almost immediately overwhelmed any lingering sweet sensation
3 | C[C@H](CC[C@@H](O[C@@H]1O[C@H](CO[C@@H]2O[C@H](CO)[C@@H](O)[C@H](O)[C@H]2O)[C@@H](O)[C@H](O)[C@H]1O[C@@H]1O[C@H](CO)[C@@H](O)[C@H](O)[C@H]1O)C(C)(C)O)[C@H]1CC[C@@]2(C)[C@@H]3CC=C4[C@@H](CC[C@H](O[C@@H]5O[C@H](CO[C@@H]6O[C@H](CO)[C@@H](O)[C@H](O)[C@H]6O)[C@@H](O)[C@H](O)[C@H]5O)C4(C)C)[C@]3(C)[C@H](O)C[C@]12C [Mogroside V, mogroside V] | 11.5 | 185 |  | 2.9 and 2.5 | 0.0 | 1.1 and 1.4 | 11.9 and 12.1 | 4.2 and 4.5 | 2.6 and 3.0 | 0.8 and 0.7 | 16.2 and 14.3 | 35.9 and 36.3 |  | Beidler equation denominator constant (SEV=a*C/(b+C), b) ([1]; C = concentration): 920.8 ppm or mg/L; Beidler equation numerator constant (SEV=a*C/(b+C), a) ([1]; SEV = % sucrose equivalent sweetness): 22.03; potency, times as sweet as sucrose at 5 SEV ([1]; listed as mogroside V): 185 times as sweet as sucrose; potency, times as sweet as sucrose at 5 SEV ([1]; listed as mogroside-V): about 185 times as sweet as sucrose; potency, times as sweet as sucrose at 5 SEV ([1]; listed as purified Mog-V): ~200 times as sweet as sucrose; Potency at 10 SEV ([1]; at 10 SEV, from Beidler curve): 131×; onset of sweetness [2, 5]: 1.1 s; time to reach maximum sweetness [2, 5]: 2.5 s
4 | C=C1C[C@@]23CC[C@H]4[C@@](C)(CCC[C@@]4(C)C(=O)O[C@@H]4O[C@H](CO)[C@@H](O)[C@H](O)[C@H]4O)[C@@H]2CC[C@]1(O[C@@H]1O[C@H](CO)[C@@H](O)[C@H](O[C@@H]2O[C@H](CO)[C@@H](O)[C@H](O)[C@H]2O)[C@H]1O[C@@H]1O[C@H](CO)[C@@H](O)[C@H](O)[C@H]1O)C3 [Rebaudioside A, rebaudioside A] |  |  | about 40 seconds |  |  |  |  |  |  |  |  |  | a bitter taste continued to linger; also recorded: notable bitterness compared to the other sweeteners | 
5 | C=C1C[C@@]23CC[C@H]4[C@@](C)(CCC[C@@]4(C)C(=O)O[C@@H]4O[C@H](CO)[C@@H](O)[C@H](O[C@@H]5O[C@H](CO)[C@@H](O)[C@H](O)[C@H]5O)[C@H]4O[C@@H]4O[C@H](CO)[C@@H](O)[C@H](O)[C@H]4O)[C@@H]2CC[C@]1(O[C@@H]1O[C@H](CO)[C@@H](O)[C@H](O[C@@H]2O[C@H](CO)[C@@H](O)[C@H](O)[C@H]2O)[C@H]1O[C@@H]1O[C@H](CO)[C@@H](O)[C@H](O)[C@H]1O)C3 [Rebaudioside M, rebaudioside M] |  |  | 50 s |  |  |  |  |  |  |  |  |  |  | 
6 | OC[C@H]1O[C@@](CO)(O[C@H]2O[C@H](CO)[C@@H](O)[C@H](O)[C@H]2O)[C@@H](O)[C@@H]1O [sucrose] |  |  |  |  |  |  |  |  |  |  |  |  |  | sweetness decay time (typical value) ([4]; 6 SEV solution of sucrose): 20 to 25 s; onset of sweetness (general value, not evaluated in this test) [4, 6]: about 0.5 seconds; time to reach maximum sweetness (general value, not evaluated in this test) [4, 6]: around 1 second
